Reference: the supplement of paper PMC10307832

Key:
Test in all cases: relative viability (nuclei count vs DMSO), 5 days (fraction); higher = more cells survive
201T = tested on: 201T
In short: (§1)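 Lung cancer cell lines were seeded in 1536-well plates and dosed by pin tool the next day, with either a single drug or a fixed anchor-drug dose combined with five library-drug doses (not always all listed) spaced in √10 steps. Five days later, one step fixed the cells and stained their nuclei (final 0.05% Triton X-100, 1% formaldehyde, 1 ug/ml Hoechst), and nuclei were counted on 4× images. Relative viability is the nuclei count in treated wells divided by the count in vehicle wells, and each value is the median of duplicate plates.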

A-427 = tested on: A-427
In short: as §1

BEN = tested on: BEN
In short: as §1

COR-L 105 = tested on: COR-L 105
In short: as §1

COR-L23 = tested on: COR-L23
In short: as §1

EKVX = tested on: EKVX
In short: as §1

HARA = tested on: HARA
In short: as §1

HCC-15 = tested on: HCC-15
In short: as §1

HCC-44 = tested on: HCC-44
In short: as §1

HCC-827 = tested on: HCC-827
In short: as §1

LK-2 = tested on: LK-2
In short: as §1

NCI-H1437 = tested on: NCI-H1437
In short: as §1

NCI-H1666 = tested on: NCI-H1666
In short: as §1

NCI-H1792 = tested on: NCI-H1792
In short: as §1

NCI-H1975 = tested on: NCI-H1975
In short: as §1

NCI-H23 = tested on: NCI-H23
In short: as §1

NCI-H358 = tested on: NCI-H358
In short: as §1

NCI-H441 = tested on: NCI-H441
In short: as §1

NCI-H596 = tested on: NCI-H596
In short: as §1

NCI-H650 = tested on: NCI-H650
In short: as §1

NCI-H838 = tested on: NCI-H838
In short: as §1

SK-MES-1 = tested on: SK-MES-1
In short: as §1

SW 900 = tested on: SW 900
In short: as §1

## C=C1C(=O)O[C@@H](CCCCCCCC)[C@@H]1C(=O)O [C-75] + CCNC(=O)c1noc(-c2cc(C(C)C)c(O)cc2O)c1-c1ccc(CN2CCOCC2)cc1 [Luminespib] (partner 0.01 µM)
201T; first compound 0.08 µM
  relative viability: 1.07
201T; first compound 0.253 µM
  relative viability: 1.08
201T; first compound 0.8 µM
  relative viability: 1.07
201T; first compound 2.53 µM
  relative viability: 1.04
201T; first compound 8 µM
  relative viability: 1.06
A-427; first compound 0.08 µM
  relative viability: 0.931
A-427; first compound 0.253 µM
  relative viability: 0.788
A-427; first compound 0.8 µM
  relative viability: 0.922
A-427; first compound 2.53 µM
  relative viability: 0.842
A-427; first compound 8 µM
  relative viability: 0.703
BEN; first compound 0.08 µM
  relative viability: 0.351
BEN; first compound 0.253 µM
  relative viability: 0.302
BEN; first compound 0.8 µM
  relative viability: 0.302
BEN; first compound 8 µM
  relative viability: 0.181
COR-L 105; first compound 0.08 µM
  relative viability: 0.688
COR-L 105; first compound 0.253 µM
  relative viability: 0.584
COR-L 105; first compound 0.8 µM
  relative viability: 0.817
COR-L 105; first compound 2.53 µM
  relative viability: 0.815
COR-L 105; first compound 8 µM
  relative viability: 0.638
COR-L23; first compound 0.08 µM
  relative viability: 0.63
COR-L23; first compound 0.253 µM
  relative viability: 0.706
COR-L23; first compound 0.8 µM
  relative viability: 0.682
COR-L23; first compound 2.53 µM
  relative viability: 0.66
COR-L23; first compound 8 µM
  relative viability: 0.559
EKVX; first compound 0.08 µM
  relative viability: 0.867
EKVX; first compound 0.253 µM
  relative viability: 0.984
EKVX; first compound 0.8 µM
  relative viability: 0.788
EKVX; first compound 8 µM
  relative viability: 0.891
HARA; first compound 0.08 µM
  relative viability: 0.684
HARA; first compound 0.253 µM
  relative viability: 0.684
HARA; first compound 0.8 µM
  relative viability: 0.683
HARA; first compound 2.53 µM
  relative viability: 0.712
HARA; first compound 8 µM
  relative viability: 0.612
HCC-15; first compound 0.08 µM
  relative viability: 0.303
HCC-15; first compound 0.253 µM
  relative viability: 0.271
HCC-15; first compound 0.8 µM
  relative viability: 0.148
HCC-15; first compound 2.53 µM
  relative viability: 0.345
HCC-15; first compound 8 µM
  relative viability: 0.196
HCC-44; first compound 0.08 µM
  relative viability: 0.966
HCC-44; first compound 0.253 µM
  relative viability: 0.984
HCC-44; first compound 0.8 µM
  relative viability: 1
HCC-44; first compound 2.53 µM
  relative viability: 0.89
HCC-44; first compound 8 µM
  relative viability: 0.729
HCC-827; first compound 0.08 µM
  relative viability: 0.519
HCC-827; first compound 0.253 µM
  relative viability: 0.703
HCC-827; first compound 0.8 µM
  relative viability: 0.825
HCC-827; first compound 2.53 µM
  relative viability: 0.42
HCC-827; first compound 8 µM
  relative viability: 0.566
LK-2; first compound 0.08 µM
  relative viability: 0.193
LK-2; first compound 0.253 µM
  relative viability: 0.195
LK-2; first compound 0.8 µM
  relative viability: 0.191
LK-2; first compound 2.53 µM
  relative viability: 0.185
LK-2; first compound 8 µM
  relative viability: 0.202
NCI-H1437; first compound 0.08 µM
  relative viability: 1.15
NCI-H1437; first compound 0.253 µM
  relative viability: 1.27
NCI-H1437; first compound 0.8 µM
  relative viability: 1.11
NCI-H1437; first compound 2.53 µM
  relative viability: 1.13
NCI-H1437; first compound 8 µM
  relative viability: 1.12
NCI-H1666; first compound 0.08 µM
  relative viability: 0.961
NCI-H1666; first compound 0.253 µM
  relative viability: 1.04
NCI-H1666; first compound 0.8 µM
  relative viability: 1
NCI-H1666; first compound 2.53 µM
  relative viability: 0.934
NCI-H1666; first compound 8 µM
  relative viability: 0.827
NCI-H1792; first compound 0.08 µM
  relative viability: 0.423
NCI-H1792; first compound 0.253 µM
  relative viability: 0.484
NCI-H1792; first compound 0.8 µM
  relative viability: 0.514
NCI-H1792; first compound 2.53 µM
  relative viability: 0.331
NCI-H1792; first compound 8 µM
  relative viability: 0.522
NCI-H1975; first compound 0.08 µM
  relative viability: 0.161
NCI-H1975; first compound 0.253 µM
  relative viability: 0.195
NCI-H1975; first compound 0.8 µM
  relative viability: 0.122
NCI-H1975; first compound 2.53 µM
  relative viability: 0.13
NCI-H1975; first compound 8 µM
  relative viability: 0.252
NCI-H23; first compound 0.08 µM
  relative viability: 0.246
NCI-H23; first compound 0.253 µM
  relative viability: 0.206
NCI-H23; first compound 0.8 µM
  relative viability: 0.198
NCI-H23; first compound 2.53 µM
  relative viability: 0.222
NCI-H23; first compound 8 µM
  relative viability: 0.209
NCI-H358; first compound 0.08 µM
  relative viability: 0.338
NCI-H358; first compound 0.253 µM
  relative viability: 0.247
NCI-H358; first compound 0.8 µM
  relative viability: 0.314
NCI-H358; first compound 2.53 µM
  relative viability: 0.355
NCI-H358; first compound 8 µM
  relative viability: 0.224
NCI-H441; first compound 0.08 µM
  relative viability: 0.329
NCI-H441; first compound 0.253 µM
  relative viability: 0.453
NCI-H441; first compound 0.8 µM
  relative viability: 0.295
NCI-H441; first compound 2.53 µM
  relative viability: 0.518
NCI-H441; first compound 8 µM
  relative viability: 0.305
NCI-H596; first compound 0.08 µM
  relative viability: 0.854
NCI-H596; first compound 0.253 µM
  relative viability: 0.968
NCI-H596; first compound 0.8 µM
  relative viability: 0.937
NCI-H596; first compound 2.53 µM
  relative viability: 0.939
NCI-H596; first compound 8 µM
  relative viability: 0.957
NCI-H650; first compound 0.08 µM
  relative viability: 0.685
NCI-H650; first compound 0.253 µM
  relative viability: 0.737
NCI-H650; first compound 0.8 µM
  relative viability: 0.818
NCI-H650; first compound 2.53 µM
  relative viability: 0.684
NCI-H650; first compound 8 µM
  relative viability: 0.788
NCI-H838; first compound 0.08 µM
  relative viability: 0.325
NCI-H838; first compound 0.8 µM
  relative viability: 0.296
NCI-H838; first compound 2.53 µM
  relative viability: 0.286
NCI-H838; first compound 8 µM
  relative viability: 0.238
SK-MES-1; first compound 0.08 µM
  relative viability: 0.756
SK-MES-1; first compound 0.253 µM
  relative viability: 0.73
SK-MES-1; first compound 0.8 µM
  relative viability: 0.685
SK-MES-1; first compound 2.53 µM
  relative viability: 0.652
SK-MES-1; first compound 8 µM
  relative viability: 0.552
SW 900; first compound 0.08 µM
  relative viability: 0.169
SW 900; first compound 0.253 µM
  relative viability: 0.191
SW 900; first compound 0.8 µM
  relative viability: 0.163
SW 900; first compound 2.53 µM
  relative viability: 0.175
SW 900; first compound 8 µM
  relative viability: 0.206
